Data published in ChEMBL document CHEMBL3621073, “Bile acid amphiphiles with tunable head groups as highly selective antitubercular agents” (Medchemcomm, 2014).
Values after ≈ are worked out from the molar mass of the structure shown. Active and inactive are the calls of the source. The calls are words filed in the database; no cut-off is given here.

Key:
[1] = tested on: Mycobacterium tuberculosis; experiment: Antimycobacterial activity against Mycobacterium bovis BCG after 14 days by inverted microscopic analysis; type: functional; details: variant bovis BCG, 336 h
[2] = tested on: Mycobacterium tuberculosis; experiment: Antimycobacterial activity against Mycobacterium bovis BCG assessed as pore and grove formation by atomic force microscopic analysis; type: functional, organism-based; details: variant bovis BCG
[3] = tested on: Mycobacterium tuberculosis; experiment: Antimycobacterial activity against Mycobacterium bovis BCG assessed as rugged membrane surface by atomic force microscopic analysis; type: functional, organism-based; details: variant bovis BCG
[4] = tested on: Mycobacterium tuberculosis; experiment: Antimycobacterial activity against Mycobacterium bovis BCG after 14 days by inverted microscopic analysis in presence of plasma; type: functional; details: variant bovis BCG, 336 h
[5] = tested on: Mycobacterium tuberculosis; experiment: Antimycobacterial activity against Mycobacterium bovis BCG assessed as effect on membrane morphology by atomic force microscopic analysis; type: functional, organism-based; details: variant bovis BCG
[6] = tested on: Mycobacterium tuberculosis; experiment: Antimycobacterial activity against Mycobacterium bovis BCG assessed as effect on membrane topology by atomic force microscopic analysis; type: functional, organism-based; details: variant bovis BCG

SMILES	MIC99 [1]	also measured
COC(=O)CC[C@@H](C)[C@H]1CC[C@H]2[C@@H]3[C@H](OC(=O)C[N+]4(C)CCCCC4)C[C@@H]4C[C@H](OC(=O)C[N+]5(C)CCCCC5)CC[C@]4(C)[C@H]3CC[C@]12C	6.25 µM	–
COC(=O)CC[C@@H](C)[C@H]1CC[C@H]2[C@@H]3CC[C@@H]4C[C@H](OC(=O)C[N+]5(C)CCCCC5)CC[C@]4(C)[C@H]3C[C@H](OC(=O)C[N+]3(C)CCCCC3)[C@]12C	3.12 µM	–
COC(=O)CC[C@@H](C)[C@H]1CC[C@H]2[C@@H]3CC[C@@H]4C[C@H](OC(=O)C[N+]5(C)CCCCC5)CC[C@]4(C)[C@H]3CC[C@]12C	50 µM	–
COC(=O)CC[C@@H](C)[C@H]1CC[C@H]2[C@@H]3CC[C@@H]4C[C@H](OC(=O)C[n+]5ccc(N(C)C)cc5)CC[C@]4(C)[C@H]3CC[C@]12C	50 µM	–
COC(=O)CC[C@@H](C)[C@H]1CC[C@H]2[C@@H]3[C@H](OC(=O)CN)C[C@@H]4C[C@H](OC(=O)CN)CC[C@]4(C)[C@H]3CC[C@]12C	37.5 µM (≈ 19.5 µg/mL)	–
COC(=O)CC[C@@H](C)[C@H]1CC[C@H]2[C@@H]3[C@H](OC(=O)C[N+](C)(C)C)C[C@@H]4C[C@H](OC(=O)C[N+](C)(C)C)CC[C@]4(C)[C@H]3CC[C@]12C	4.68 µM	–
COC(=O)CC[C@@H](C)[C@H]1CC[C@H]2[C@@H]3CC[C@@H]4C[C@H](OC(=O)CN)CC[C@]4(C)[C@H]3CC[C@]12C	> 50 µM	–
COC(=O)CC[C@@H](C)[C@H]1CC[C@H]2[C@@H]3CC[C@@H]4C[C@H](OC(=O)C[n+]5ccccc5)CC[C@]4(C)[C@H]3C[C@H](OC(=O)C[n+]3ccccc3)[C@]12C	6.25 µM	–
COC(=O)CC[C@@H](C)[C@H]1CC[C@H]2[C@@H]3[C@H](OC(=O)C[N+](C)(C)C)C[C@@H]4C[C@H](OC(=O)C[N+](C)(C)C)CC[C@]4(C)[C@H]3C[C@H](OC(=O)C[N+](C)(C)C)[C@]12C.[Cl-].[Cl-].[Cl-]	6.25 µM	–
COC(=O)CC[C@@H](C)[C@H]1CC[C@H]2[C@@H]3CC[C@@H]4C[C@H](OC(=O)C[N+](C)(C)C)CC[C@]4(C)[C@H]3C[C@H](OC(=O)C[N+](C)(C)C)[C@]12C	25 µM	–
COC(=O)CC[C@@H](C)[C@H]1CC[C@H]2[C@@H]3[C@H](OC(=O)C[n+]4ccccc4)C[C@@H]4C[C@H](OC(=O)C[n+]5ccccc5)CC[C@]4(C)[C@H]3C[C@H](OC(=O)C[n+]3ccccc3)[C@]12C.[Cl-].[Cl-].[Cl-]	6.25 µM	–
COC(=O)CC[C@@H](C)[C@H]1CC[C@H]2[C@@H]3CC[C@@H]4C[C@H](OC(=O)C[n+]5ccc(N(C)C)cc5)CC[C@]4(C)[C@H]3C[C@H](OC(=O)C[n+]3ccc(N(C)C)cc3)[C@]12C	2.34 µM	–
COC(=O)CC[C@@H](C)[C@H]1CC[C@H]2[C@@H]3[C@H](OC(=O)C[n+]4ccccc4)C[C@@H]4C[C@H](OC(=O)C[n+]5ccccc5)CC[C@]4(C)[C@H]3CC[C@]12C	9.38 µM	–
NNC(=O)c1ccncc1 [ISONIAZID]	0.78 µM (≈ 0.107 µg/mL)	–
COC(=O)CC[C@@H](C)[C@H]1CC[C@H]2[C@@H]3[C@H](OC(=O)C[n+]4ccc(N(C)C)cc4)C[C@@H]4C[C@H](OC(=O)C[n+]5ccc(N(C)C)cc5)CC[C@]4(C)[C@H]3C[C@H](OC(=O)C[n+]3ccc(N(C)C)cc3)[C@]12C.[Cl-].[Cl-].[Cl-]	3.12 µM	Activity [2]: Active; Activity [3]: Active; MIC99 [4]: 6.25 µM
COC(=O)CC[C@@H](C)[C@H]1CC[C@H]2[C@@H]3[C@H](OC(=O)CN)C[C@@H]4C[C@H](OC(=O)CN)CC[C@]4(C)[C@H]3C[C@H](OC(=O)CN)[C@]12C.Cl.Cl.Cl	18.8 µM	Activity [5]: inactive; Activity [6]: inactive
COC(=O)CC[C@@H](C)[C@H]1CC[C@H]2[C@@H]3CC[C@@H]4C[C@H](OC(=O)C[n+]5ccccc5)CC[C@]4(C)[C@H]3CC[C@]12C	> 50 µM	–
COC(=O)CC[C@@H](C)[C@H]1CC[C@H]2[C@@H]3[C@H](OC(=O)C[n+]4ccc(N(C)C)cc4)C[C@@H]4C[C@H](OC(=O)C[n+]5ccc(N(C)C)cc5)CC[C@]4(C)[C@H]3CC[C@]12C	3.12 µM	–
COC(=O)CC[C@@H](C)[C@H]1CC[C@H]2[C@@H]3CC[C@@H]4C[C@H](OC(=O)CN)CC[C@]4(C)[C@H]3C[C@H](OC(=O)CN)[C@]12C	25 µM (≈ 13 µg/mL)	–
COC(=O)CC[C@@H](C)[C@H]1CC[C@H]2[C@@H]3CC[C@@H]4C[C@H](OC(=O)C[N+](C)(C)C)CC[C@]4(C)[C@H]3CC[C@]12C	50 µM	–
COC(=O)CC[C@@H](C)[C@H]1CC[C@H]2[C@@H]3[C@H](OC(=O)C[N+]4(C)CCCCC4)C[C@@H]4C[C@H](OC(=O)C[N+]5(C)CCCCC5)CC[C@]4(C)[C@H]3C[C@H](OC(=O)C[N+]3(C)CCCCC3)[C@]12C.[Cl-].[Cl-].[Cl-]	6.25 µM	–
C[C@H]1COc2c(N3CCN(C)CC3)c(F)cc3c(=O)c(C(=O)O)cn1c23 [LEVOFLOXACIN]	0.39 µM (≈ 0.141 µg/mL)	–
